Experimental data as given in publication PMC8963254, “Effects of Lysine N-ζ-Methylation in Ultrashort Tetrabasic Lipopeptides (UTBLPs) on the Potentiation of Rifampicin, Novobiocin, and Niclosamide in Gram-Negative Bacteria” (Antibiotics, 2022).
≈ marks a conversion by molar mass, not a printed value. Like-named read-outs stand apart in the source and are kept apart here.

How the values were obtained:
MSSE 81388 [1] = assay type: cell-based, Staphylococcus epidermidis; details: 18 h
Description: (§1) The in vitro antibacterial activity of the UTBLPs was assessed against wild-type and clinically isolated bacterial strains. To obtain the MIC of the compounds, the microbroth dilution susceptibility assay was performed according to the Clinical and Laboratory Standards Institute (CLSI, Wayne, PA, USA) guidelines and as previously described. Briefly, the compounds at varying concentrations were incubated with bacterial inoculum (5 × 10^5 CFU/mL final concentration) at 37 °C for 18 h. Growth in the form of turbidity was confirmed using an EMax Plus microplate reader (Molecular Devices, San Jose, CA, USA) at 590 nm.

MRSE 61589 [2] = assay type: cell-based, Staphylococcus epidermidis; details: 61589, 18 h
Description: as §1

E. faecium ATCC 27270 [3] = assay type: cell-based, Enterococcus faecium; details: ATCC 27270, 18 h
Description: as §1

MSSE 81388 [4] = assay type: cell-based, Staphylococcus epidermidis
Description: (§2) The synergy of the UTBLPs with various antibiotics was assessed using checkerboard assay as previously described. Briefly, the combination of antibiotic and OMP at varying concentrations were incubated with bacterial inoculum (5 × 10^5 CFU/mL final concentration) at 37 °C for 18 h. Growth in the form of turbidity was confirmed using an EMax Plus microplate reader (Molecular Devices, Union City, CA, USA) at 590 nm. Fractional inhibitory concentration index (FICI) was used to evaluate the interaction between the antibiotic and the OMP. FICI is the sum of the FIC of the antibiotic and the FIC of the OMP. The FIC value is calculated by dividing the MIC of the agents in combination by the MIC of the agent alone. FICI ≤ 0.5 is synergistic, 0.5 < x ≤ 4 is additive, and >4 is antagonistic.

MRSE 61589 [5] = assay type: cell-based, Staphylococcus epidermidis
Description: as §2

E. faecium ATCC 27270 [6] = assay type: cell-based, Enterococcus faecium
Description: as §2

K. pneumoniae 113250 [7] = assay type: cell-based, Klebsiella pneumoniae; details: for MICUTBLP: UTBLP alone
Description: as §2

MRSA ATCC 33592 = assay type: cell-based, Staphylococcus aureus
Description: as §2

S. aureus ATCC 29213 = assay type: cell-based, Staphylococcus aureus
Description: as §2

K. pneumoniae 113250 [8] = test: microbe, parasite or virus in culture; assay type: cell-based, Klebsiella pneumoniae; details: 113250, 18 h
Description: as §1

E. faecalis ATCC 29212 [9] = assay type: cell-based, Enterococcus faecalis; details: ATCC 29212, 18 h
Description: as §1

E. coli 94474 [10] = test: microbe, parasite or virus in culture; assay type: cell-based, Escherichia coli; details: 94474, 18 h
Description: as §1

E. coli 94393 [11] = test: microbe, parasite or virus in culture; assay type: cell-based, Escherichia coli; details: 94393, 18 h
Description: as §1

A. baumannii ATCC 17978 = assay type: cell-based, Acinetobacter baumannii; details: ATCC 17978, 18 h
Description: as §1

E. coli ATCC 25922 [12] = assay type: cell-based, Escherichia coli; details: ATCC 25922, 18 h
Description: as §1

E. coli ATCC 25922 [13] = assay type: cell-based, Escherichia coli; details: for MICUTBLP: UTBLP alone
Description: as §2

E. coli 94474 [14] = assay type: cell-based, Escherichia coli; details: for MICUTBLP: UTBLP alone
Description: as §2

E. coli 94393 [15] = assay type: cell-based, Escherichia coli; details: for MICUTBLP: UTBLP alone
Description: as §2

A. baumannii AB92247 = test: microbe, parasite or virus in culture; assay type: cell-based, Acinetobacter baumannii; details: AB92247, 18 h
Description: as §1

A. baumannii AB027 = test: microbe, parasite or virus in culture; assay type: cell-based, Acinetobacter baumannii; details: AB027, 18 h
Description: as §1

E. faecalis ATCC 29212 [16] = assay type: cell-based, Enterococcus faecalis
Description: as §2

[17] = UTBLP alone, plate with chloramphenicol
[18] = UTBLP in combination with chloramphenicol
[19] = chloramphenicol in combination with the UTBLP
[20] = UTBLP in combination with novobiocin
[21] = UTBLP in combination with rifampicin
[22] = novobiocin in combination with the UTBLP
[23] = rifampicin in combination with the UTBLP

SMILES: CCCCCCCC(=O)N[C@@H](CCCCN)C(=O)NCCCN(CCCNC(=O)[C@H](CCCCN)NC(=O)CCCCCCC)CC(=O)N[C@@H](CCCCN)C(N)=O [UTBLP 1]
- MIC (MSSE 81388 [1]): 32 µg/mL (≈ 38.8 µM)
- MIC (MRSE 61589 [2]): 32 µg/mL (≈ 38.8 µM)
- MIC (E. faecium ATCC 27270 [3]): 64 µg/mL (≈ 77.6 µM)
- Interpretation (MSSE 81388 [4]; UTBLP + chloramphenicol): Additive (0.5 < x ≤ 4 is additive)
- MICUTBLP (MSSE 81388 [4]; [17]): 32 µg/mL
- MICUTBLP [MICcombo] (MSSE 81388 [4]; [18]): 0.25 µg/mL
- MICchloramphenicol [MICcombo] (MSSE 81388 [4]; [19]): 4 µg/mL
- Interpretation (MRSE 61589 [5]; UTBLP + chloramphenicol): Additive (0.5 < x ≤ 4 is additive)
- MICUTBLP (MRSE 61589 [5]; [17]): 32 µg/mL
- MICUTBLP [MICcombo] (MRSE 61589 [5]; [18]): 16 µg/mL
- MICchloramphenicol [MICcombo] (MRSE 61589 [5]; [19]): 2 µg/mL
- Interpretation (E. faecium ATCC 27270 [6]; UTBLP + chloramphenicol): Additive (0.5 < x ≤ 4 is additive)
- MICUTBLP (E. faecium ATCC 27270 [6]; [17]): 64 µg/mL
- MICUTBLP [MICcombo] (E. faecium ATCC 27270 [6]; [18]): 0.25 µg/mL
- MICchloramphenicol [MICcombo] (E. faecium ATCC 27270 [6]; [19]): 8 µg/mL
- Interpretation (K. pneumoniae 113250 [7]; UTBLP + novobiocin): Synergy (FICI ≤ 0.5 is synergistic)
- Interpretation (K. pneumoniae 113250 [7]; UTBLP + rifampicin): Synergy (FICI ≤ 0.5 is synergistic)
- MICUTBLP (K. pneumoniae 113250 [7]; plate with novobiocin): > 128 µg/mL
- MICUTBLP (K. pneumoniae 113250 [7]; plate with rifampicin): > 128 µg/mL
- MICUTBLP [MICcombo] (K. pneumoniae 113250 [7]; [20]): 8 µg/mL
- MICUTBLP [MICcombo] (K. pneumoniae 113250 [7]; [21]): 16 µg/mL
- MICantibiotic [MICcombo] (K. pneumoniae 113250 [7]; [22]): 16 µg/mL
- MICantibiotic [MICcombo] (K. pneumoniae 113250 [7]; [23]): 0.5 µg/mL
- Interpretation (MRSA ATCC 33592; UTBLP + chloramphenicol): Additive (0.5 < x ≤ 4 is additive)
- MICUTBLP (MRSA ATCC 33592; [17]): 128 µg/mL
- MICUTBLP [MICcombo] (MRSA ATCC 33592; [18]): 0.25 µg/mL
- MICchloramphenicol [MICcombo] (MRSA ATCC 33592; [19]): 64 µg/mL
- MICUTBLP (S. aureus ATCC 29213; [17]): 64 µg/mL
- MICUTBLP [MICcombo] (S. aureus ATCC 29213; [18]): 0.25 µg/mL
- MICchloramphenicol [MICcombo] (S. aureus ATCC 29213; [19]): 8 µg/mL
- MIC (K. pneumoniae 113250 [8]): > 128 µg/mL
- MIC (E. faecalis ATCC 29212 [9]): 128 µg/mL (≈ 155 µM)
- MIC (E. coli 94474 [10]): > 128 µg/mL
- MIC (E. coli 94393 [11]): > 128 µg/mL
- MIC (A. baumannii ATCC 17978): >128 µg/mL
- MIC (E. coli ATCC 25922 [12]): >128 µg/mL
- Interpretation (E. coli ATCC 25922 [13]; UTBLP + chloramphenicol): Synergy (FICI ≤ 0.5 is synergistic)
- Interpretation (E. coli ATCC 25922 [13]; UTBLP + niclosamide): Synergy (FICI ≤ 0.5 is synergistic)
- Interpretation (E. coli ATCC 25922 [13]; UTBLP + novobiocin): Synergy (FICI ≤ 0.5 is synergistic)
- Interpretation (E. coli ATCC 25922 [13]; UTBLP + rifampicin): Synergy (FICI ≤ 0.5 is synergistic)
- MICUTBLP (E. coli ATCC 25922 [13]; plate with chloramphenicol): > 128 µg/mL
- MICUTBLP (E. coli ATCC 25922 [13]; plate with niclosamide): > 128 µg/mL
- MICUTBLP (E. coli ATCC 25922 [13]; plate with novobiocin): > 128 µg/mL
- MICUTBLP (E. coli ATCC 25922 [13]; plate with rifampicin): > 128 µg/mL
- MICUTBLP [MICcombo] (E. coli ATCC 25922 [13]; [18]): 32 µg/mL
- MICUTBLP [MICcombo] (E. coli ATCC 25922 [13]; UTBLP in combination with niclosamide): 8 µg/mL
- MICUTBLP [MICcombo] (E. coli ATCC 25922 [13]; [20]): 8 µg/mL
- MICUTBLP [MICcombo] (E. coli ATCC 25922 [13]; [21]): 8 µg/mL
- MICantibiotic [MICcombo] (E. coli ATCC 25922 [13]; [19]): 1 µg/mL
- MICantibiotic [MICcombo] (E. coli ATCC 25922 [13]; niclosamide in combination with the UTBLP): 0.5 µg/mL
- MICantibiotic [MICcombo] (E. coli ATCC 25922 [13]; [22]): 0.25 µg/mL
- MICantibiotic [MICcombo] (E. coli ATCC 25922 [13]; [23]): 0.125 µg/mL
- Interpretation (E. coli 94474 [14]; UTBLP + novobiocin): Synergy (FICI ≤ 0.5 is synergistic)
- Interpretation (E. coli 94474 [14]; UTBLP + rifampicin): Synergy (FICI ≤ 0.5 is synergistic)
- MICUTBLP (E. coli 94474 [14]; plate with novobiocin): > 128 µg/mL
- MICUTBLP (E. coli 94474 [14]; plate with rifampicin): > 128 µg/mL
- MICUTBLP [MICcombo] (E. coli 94474 [14]; [20]): 8 µg/mL
- MICUTBLP [MICcombo] (E. coli 94474 [14]; [21]): 8 µg/mL
- MICantibiotic [MICcombo] (E. coli 94474 [14]; [22]): 4 µg/mL
- MICantibiotic [MICcombo] (E. coli 94474 [14]; [23]): 0.125 µg/mL
- Interpretation (E. coli 94393 [15]; UTBLP + novobiocin): Synergy (FICI ≤ 0.5 is synergistic)
- Interpretation (E. coli 94393 [15]; UTBLP + rifampicin): Synergy (FICI ≤ 0.5 is synergistic)
- MICUTBLP (E. coli 94393 [15]; plate with novobiocin): > 128 µg/mL
- MICUTBLP (E. coli 94393 [15]; plate with rifampicin): > 128 µg/mL
- MICUTBLP [MICcombo] (E. coli 94393 [15]; [20]): 8 µg/mL
- MICUTBLP [MICcombo] (E. coli 94393 [15]; [21]): 8 µg/mL
- MICantibiotic [MICcombo] (E. coli 94393 [15]; [22]): 0.5 µg/mL
- MICantibiotic [MICcombo] (E. coli 94393 [15]; [23]): 0.031 µg/mL
- MIC (A. baumannii AB92247): 64 µg/mL (≈ 77.6 µM)
- MIC (A. baumannii AB027): 128 µg/mL (≈ 155 µM)
- Interpretation (E. faecalis ATCC 29212 [16]; UTBLP + chloramphenicol): Additive (0.5 < x ≤ 4 is additive)
- MICUTBLP (E. faecalis ATCC 29212 [16]; [17]): 128 µg/mL
- MICUTBLP [MICcombo] (E. faecalis ATCC 29212 [16]; [18]): 16 µg/mL
- MICchloramphenicol [MICcombo] (E. faecalis ATCC 29212 [16]; [19]): 2 µg/mL
